We go through three compounds from patent US5627203A, “Tricyclic oxime ethers” (Adir et Compagnie, priority 1994, dated 1997).

The target in test [1] is T1, 5-HT1A receptors (Rattus norvegicus, UniProt P19327).
T1 construct: rat hippocampus homogenates; from tissue; host or cells: rat hippocampus
T1 sequence (P19327 1-422): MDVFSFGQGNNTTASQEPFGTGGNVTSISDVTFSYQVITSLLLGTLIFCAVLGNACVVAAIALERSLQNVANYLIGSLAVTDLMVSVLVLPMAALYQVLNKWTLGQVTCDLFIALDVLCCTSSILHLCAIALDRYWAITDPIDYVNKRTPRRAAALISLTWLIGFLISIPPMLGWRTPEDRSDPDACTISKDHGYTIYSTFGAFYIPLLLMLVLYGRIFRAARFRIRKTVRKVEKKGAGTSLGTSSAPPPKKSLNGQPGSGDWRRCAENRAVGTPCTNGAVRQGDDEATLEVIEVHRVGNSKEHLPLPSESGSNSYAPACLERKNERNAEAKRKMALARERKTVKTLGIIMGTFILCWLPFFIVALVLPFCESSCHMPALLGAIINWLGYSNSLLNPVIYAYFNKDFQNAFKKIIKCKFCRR
Kind of test: Displacement of 8-OH-DPAT at 5-HT1A receptors. The settings on record: rat hippocampus homogenates. The test is classed as binding. On the procedure: (§1) A-2: Study of the binding of the compounds of the invention to the serotonin reuptake site as well as to 5-HT1, 5-HT1A, 5-HT1B, 5-HT1D, 5-HT2, 5-HT2C, 5-HT4 serotoninergic receptors.
(§2) The binding of the compounds of the invention is measured in accordance with conventional methods.
for 5-HT1A receptors, by the displacement of 8-OH-DPAT in rat hippocampus homogenates, […]

For test [2], the target named is 5-HT1 receptors. Briefly: Displacement of 5-OH tryptamine at 5-HT1 receptors. Particulars: pig frontal cortex and striatum. The test is classed as binding. On the procedure:
as §1, §2
for 5-HT1 receptors, by the displacement of 5-OH tryptamine in pig frontal cortex and striatum, […]

In test [3] the target is T2, 5-HT1B receptors (Rattus norvegicus, UniProt P28564).
T2 construct: rat cortex, striatum, and globus pallidus homogenates; from tissue; host or cells: rat cortex, striatum and globus pallidus
T2 sequence (P28564 whole entry): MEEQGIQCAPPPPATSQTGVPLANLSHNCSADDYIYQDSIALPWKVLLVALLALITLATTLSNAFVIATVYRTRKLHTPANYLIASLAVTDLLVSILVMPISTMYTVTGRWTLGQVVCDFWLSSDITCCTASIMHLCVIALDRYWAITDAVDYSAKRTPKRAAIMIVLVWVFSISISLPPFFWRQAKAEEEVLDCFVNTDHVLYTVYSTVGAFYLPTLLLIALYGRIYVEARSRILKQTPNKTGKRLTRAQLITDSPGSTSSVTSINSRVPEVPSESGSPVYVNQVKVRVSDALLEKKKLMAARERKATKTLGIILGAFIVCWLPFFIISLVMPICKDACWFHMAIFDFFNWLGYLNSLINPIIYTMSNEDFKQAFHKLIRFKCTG
Briefly: Displacement of 5-hydroxytryptamine at 5-HT1B receptors. Type of test: binding. Particulars: rat cortex, striatum, and globus pallidus homogenates. On the procedure: as §1, §2
for 5-HT1B receptors, by the displacement of 5-hydroxytryptamine in rat cortex, striatum, and globus pallidus homogenates, […]

The target of test [4] is T3, serotonin reuptake site (Rattus norvegicus, UniProt P31652).
T3 construct: rat brain from which the cerebellum has been removed; from tissue; host or cells: rat brain without cerebellum
T3 sequence (P31652 whole entry): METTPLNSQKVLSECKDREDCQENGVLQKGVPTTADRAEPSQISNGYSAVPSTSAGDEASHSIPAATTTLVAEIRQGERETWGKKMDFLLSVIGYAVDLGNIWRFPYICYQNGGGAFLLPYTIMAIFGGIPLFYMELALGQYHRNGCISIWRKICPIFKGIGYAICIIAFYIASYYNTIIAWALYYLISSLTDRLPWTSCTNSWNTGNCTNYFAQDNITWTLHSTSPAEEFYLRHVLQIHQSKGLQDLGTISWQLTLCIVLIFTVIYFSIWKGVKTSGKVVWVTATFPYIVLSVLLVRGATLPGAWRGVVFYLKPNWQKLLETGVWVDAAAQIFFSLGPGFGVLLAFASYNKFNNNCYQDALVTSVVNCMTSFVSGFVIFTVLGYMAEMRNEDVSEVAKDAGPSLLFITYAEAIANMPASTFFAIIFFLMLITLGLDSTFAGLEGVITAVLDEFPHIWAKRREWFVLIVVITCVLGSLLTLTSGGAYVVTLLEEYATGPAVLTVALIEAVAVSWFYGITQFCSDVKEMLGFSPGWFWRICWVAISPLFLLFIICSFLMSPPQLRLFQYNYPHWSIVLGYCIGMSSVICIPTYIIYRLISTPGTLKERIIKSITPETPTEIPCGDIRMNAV
Briefly: Displacement of 3H-paroxetine at the serotonin reuptake site. Type of test: binding. Particulars: rat brain without cerebellum, read-out: IC50, serotonin reuptake sites. As to the method:
as §1, §2
for the serotonin reuptake site, by the displacement of ^3 H-paroxetinein rat brain from which the cerebellum has been removed, […]

Test [5] deals with 5-HT1D receptors. Kind of test: Displacement of 5-OH-tryptamine at 5-HT1D receptors. Type of test: binding. Particulars: rat cortex, striatum and globus pallidus homogenates. As to the method:
as §1, §2
for 5-HT1D receptors, by the displacement of 5-OH-tryptamine in rat cortex, striatum and globus pallidus homogenates, […]

For test [6], the target named is T4, 5-HT2 receptors (Rattus norvegicus, UniProt P14842).
T4 construct: rat frontal cortex homogenates; from tissue; host or cells: rat frontal cortex
T4 sequence (P14842 whole entry): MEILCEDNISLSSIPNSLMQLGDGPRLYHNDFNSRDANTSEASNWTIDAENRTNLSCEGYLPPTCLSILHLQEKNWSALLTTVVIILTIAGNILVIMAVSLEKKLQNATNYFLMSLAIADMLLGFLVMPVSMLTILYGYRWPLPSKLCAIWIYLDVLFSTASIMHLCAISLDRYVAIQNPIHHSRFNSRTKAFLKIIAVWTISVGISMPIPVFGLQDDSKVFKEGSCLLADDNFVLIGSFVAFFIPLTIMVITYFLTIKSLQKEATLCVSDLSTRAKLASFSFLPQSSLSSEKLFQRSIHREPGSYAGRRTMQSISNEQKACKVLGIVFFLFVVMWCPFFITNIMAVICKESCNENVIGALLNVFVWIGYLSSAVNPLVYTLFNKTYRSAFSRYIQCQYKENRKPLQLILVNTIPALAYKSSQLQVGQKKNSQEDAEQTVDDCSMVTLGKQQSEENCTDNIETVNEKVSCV
Kind of test: Displacement of aminoiodoketaneserine at 5-HT2 receptors. Type of test: binding. Particulars: rat frontal cortex homogenates. As to the method:
as §1, §2
for 5-HT2 receptors, by the displacement of aminoiodoketaneserine in rat frontal cortex homogenates, […]

For test [7], the system named is mouse. Briefly: Anxiolytic activity: illuminated/darkened cages test on the mouse. Type of test: in vivo. The settings on record: 15 mg/kg, i.p. route, 5 minutes. The text has this:
The anxiolytic effects of the compounds of the invention were studied in accordance with the illuminated/darkened cages test on the mouse (Crawley et al. (1981), Pharmacol. Biochem. Behav., 15, pp 695-699).
The test uses two cages of equal size (20×20×14 cm) made of PVC. One is strongly illuminated by a 100 W bulb ("cold" light) and the other is darkened. The two cages are separated from one another by a small opaque tunnel (5×7 cm). The mice are introduced individually into the tunnel and, once they have entered the darkened cage for the first time, a recording is made over a period of 5 minutes, by means of pads connected to a computer, of the time spent by the animals in the illuminated cage as well as the number of transfers between the darkened cage and the illuminated cage. Each experimental group comprises a minimum of 15 animals.

Test [8] concerns the target T5, 5-HT2C receptors (Rattus norvegicus, UniProt P08909).
T5 construct: rat frontal cortex and hippocampus homogenates; from tissue; host or cells: rat frontal cortex and hippocampus
T5 sequence (P08909 33-460): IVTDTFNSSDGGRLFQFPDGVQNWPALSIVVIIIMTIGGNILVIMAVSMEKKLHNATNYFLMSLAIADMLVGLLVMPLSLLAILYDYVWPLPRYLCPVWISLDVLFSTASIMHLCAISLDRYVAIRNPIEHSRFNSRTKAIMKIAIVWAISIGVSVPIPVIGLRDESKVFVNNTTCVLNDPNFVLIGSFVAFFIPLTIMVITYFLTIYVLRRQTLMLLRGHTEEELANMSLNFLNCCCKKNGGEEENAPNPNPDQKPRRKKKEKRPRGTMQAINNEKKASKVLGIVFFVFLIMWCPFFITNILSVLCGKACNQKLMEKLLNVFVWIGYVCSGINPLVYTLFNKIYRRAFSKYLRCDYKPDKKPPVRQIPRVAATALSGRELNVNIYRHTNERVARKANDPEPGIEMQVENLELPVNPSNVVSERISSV
Kind of test: Displacement of N-methylmesulergine at 5-HT2C receptors. The settings on record: rat frontal cortex and hippocampus homogenates. Type of test: binding. As to the method: as §1, §2
for 5-HT2C receptors, by the displacement of N-methylmesulergine in rat frontal cortex and hippocampus homogenates, […]

For test [9], the target named is T6, 5-HT3 receptors (Rattus norvegicus, UniProt P35563).
T6 construct: rat area postrema homogenates; from tissue; host or cells: rat area postrema
T6 sequence (P35563 24-483): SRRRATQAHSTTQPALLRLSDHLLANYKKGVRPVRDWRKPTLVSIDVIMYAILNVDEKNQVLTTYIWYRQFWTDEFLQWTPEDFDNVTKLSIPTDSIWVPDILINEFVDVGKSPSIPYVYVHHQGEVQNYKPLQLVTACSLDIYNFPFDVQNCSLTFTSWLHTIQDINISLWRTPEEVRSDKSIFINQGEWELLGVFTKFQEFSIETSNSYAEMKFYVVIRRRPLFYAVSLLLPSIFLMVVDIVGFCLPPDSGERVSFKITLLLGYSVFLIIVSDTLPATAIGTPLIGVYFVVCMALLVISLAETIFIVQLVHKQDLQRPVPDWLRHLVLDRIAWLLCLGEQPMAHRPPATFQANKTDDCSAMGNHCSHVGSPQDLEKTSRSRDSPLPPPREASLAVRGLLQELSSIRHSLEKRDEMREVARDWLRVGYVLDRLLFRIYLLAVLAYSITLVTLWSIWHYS
Briefly: Displacement of 3H-zacopride at 5-HT3 receptors. The test is classed as binding. The settings on record: 0.3-0.4 nM 3H-zacopride, rat area postrema homogenates, pH 7.4, 25° C., 30 minutes. As to the method:
A-1: Study of the binding of the compounds of the invention to 5-HT3 serotoninergic receptors
The binding of the compounds of the invention to 5-HT3 receptors was determined for each compound by measuring the displacement of ^3 H-zacopride (specific ligand for 5-HT3 receptors) in rat area postrema homogenates.
Aliquot amounts (50-100 μl) of a membrane suspension (2.5-5.0 mg of protein/cm^3) are incubated for 30 minutes at 25° C. in a Tris-HCl buffer, 25 mM, pH 7,4, in the presence of 0.3-0.4 nM 3^H -zacopride (83 ci/mmol) (total volume: 0.5 cm^3). The incubation is terminated by filtering the samples through Whatman GF/B filters which are then washed and dried. The radioactivity retained on the filters is finally calculated by spectrometry in liquid medium (Aquasol). The non-specific binding is evaluated under the same conditions using samples containing in addition 1 μM of ondansetron (5-HT3 antagonist). The displacement curves obtained by adding increasing concentrations of a test compound to the incubation medium are analysed to determine the affinity of the test compounds for 5-HT3 receptors.

Test [10] relates to mouse. Briefly: Antidepressant activity: forced swimming test on the mouse. The settings on record: i.p. route, last 4 of 6 minutes. Type of test: in vivo. As to the method:
The antidepressant effects of the compounds of the invention were studied in accordance with the forced swimming test on the mouse. (Behavioural despair in mice: a primary screening test for antidepressants, Porsolt R. D. et al, Arch. Int. Pharmacodyn., (1977), 229, pp. 327-336).
The animals are placed for 6 minutes in a cylinder containing water from which they cannot escape. The period of immobility of the animals is measured for the last 4 minutes of the test. The test compounds are administered in a single dose before the test (imipramine being used as the reference compound).

For `Cc1csc2c1-n1cccc1/C2=N/OCC(C)N(C)C` (centres unmarked) [Example 22], the IC50 came to 9 µM in test [1]; 6.9 µM in test [2]; 11 µM in test [3]; 0.11 µM in test [4]; 6.4 µM in test [5]; 11 µM in test [6]. Moreover, the concentration for half-maximal inhibition (IC50) in test [8] stood at 1.6 µM; in test [9], 0.001 µM. Besides, the “Number of transfers, percentage compared with the control group” value in test [7] was “+76%”. In test [7] (*p < 0.5), the “Time spent in the illuminated cage, percentage compared with the control group” value was “+92%”.

Regarding `Cc1csc2c1-n1cccc1C2=NOC(CCN(C)C)c1ccccc1` (centres unmarked) [Example 39, 3-Methyl-8-{[3-(N,N-dimethylamino)-1-phenylprop-1-yloxy]imino}thieno-[2,3-d]pyrrolo[1,2-a]pyrrole], the IC50 in test [1] was 11 µM; in test [2] it was 10 µM; in test [3], greater than 100 µM; in test [4], 0.072 µM; in test [5], 6.7 µM; in test [6], 2.2 µM. Besides, the values for the IC50 in [8] and in test [9] were 0.061 µM and 0.2 µM, respectively. Moreover, the “Period of immobility expressed as a percentage by comparison with the control group” value in test [10] (32 mg/kg, **p < 0.01) is -53%.

Consider `Cc1csc2c1-n1cccc1/C2=N/OCCN(C)C` [Example 3, (Z)-8-{[2-(N,N-Dimethylamino)ethoxy]imino}-3-methylthieno[2,3-d]pyrrolo-[1,2-a]pyrrole], for which the IC50 in [1] came to 5.8 µM; in test [2], 2.2 µM; in [3], 2.7 µM; in [4] it was 0.12 µM; in [5], 0.48 µM; in test [6], 3.1 µM. Also, the IC50 in test [8] stood at 2.1 µM; in test [9], 0.00011 µM. In addition, the “Period of immobility expressed as a percentage by comparison with the control group” value in [10] (32 mg/kg, **p < 0.01) was -39%; in test [10] (64 mg/kg, ***p < 0.001), -86%.
